One test addresses human PPARgamma (Homo sapiens (Human), UniProt P37231). Description: Transactivation (reporter gene) assay, GAL4-PPARgamma LBD in U-2 OS cells. The settings on record: 40 h incubation, 16 μM Pioglitazone as 100% control, read-out: EC50 PPARγ. It counts as cell-based. As to the method:
(§1) Transactivation Assay Expression vectors were prepared by inserting the ligand binding domain cDNA (complementary DNA) of human PPARalpha (amino acid 168-468) and human PPARgamma (amino acid 205-505), 3′ to and in frame with, the yeast GAL4 transcription factor DNA binding domain and the nuclear localization signal from the T-antigen of Polyoma Virus into the mammalian expression vector pSGS (Stratagene). The resulting expression vectors pSGGAL-PPARalpha and pSGGAL-PPARgamma were used in co-transfection experiments together with a modified pGL3 promoter plasmid (Promega) containing five copies of the UAS GAL4 recognition site. 2.5 μg pSGGAL-PPARalpha or pSGGAL-PPARgamma were mixed with 25 μg pGL3p […] and 22.5 μg pBluescript (Stratagene) in 0.95 mL ice cold PBS containing between 9-12 million U-2 OS (human osteosarcoma) cells. The cell/DNA mixture was incubated on ice for 5 minutes and then divided between two 0.4 cm cuvettes and electroporated at 960 μF, 230 V using a BioRad electroporator. The two electroporation mixes were combined in assay medium [Dulbecco's Modified Eagle Medium w/o phenol red, (Gibco 11880-028) including 10% FBS (Foetal Bovine Serum), 1% PEST (Penicillin & Streptomycin), 20 mM Hepes, 2 mM L-Glutamine and 0.36% Glucose (Gibco 31966-021)] at 0.32 million cells/ml. 25 μl diluted, electroporated cells, were seeded into 384-well plates and allowed to adhere for 3-4 h at 37° C., 5% CO2 in a cell culture incubator. Test compounds in DMSO were diluted 40 fold in assay medium. 7 μl of diluted compound was added to the adhered electroporated cells and incubation was continued for 40 h in a cell culture incubator. Cells were lysed by adding 32 μl/well LucLite (Packard) and incubated at room temperature for 15 minutes. Luciferase activity was measured using a luminometry protocol on a Wallac Victor2 plate reader. 16 μM ETYA was used as the 100% control for humanPPARalpha activity and 16 μM Pioglitazone was used as the 100% control for humanPPARgamma activity. In Vivo Assay Determination of Plasma Clearance and Oral Bioavailability in Hamster or Mouse
(In general: In a reporter assay the amount or activity of a reporter protein is the signal.)

The target of another test is human PPARalpha (Homo sapiens (Human), UniProt Q07869). The test can be described thus: Transactivation (reporter gene) assay, GAL4-PPARalpha LBD in U-2 OS cells. The class given is cell-based. Particulars: 40 h incubation, 16 μM ETYA as 100% control, read-out: EC50 PPARα. As to the method: as §1

The structures appear in SMILES notation.

human PPARalpha, sequence (Q07869 168-468): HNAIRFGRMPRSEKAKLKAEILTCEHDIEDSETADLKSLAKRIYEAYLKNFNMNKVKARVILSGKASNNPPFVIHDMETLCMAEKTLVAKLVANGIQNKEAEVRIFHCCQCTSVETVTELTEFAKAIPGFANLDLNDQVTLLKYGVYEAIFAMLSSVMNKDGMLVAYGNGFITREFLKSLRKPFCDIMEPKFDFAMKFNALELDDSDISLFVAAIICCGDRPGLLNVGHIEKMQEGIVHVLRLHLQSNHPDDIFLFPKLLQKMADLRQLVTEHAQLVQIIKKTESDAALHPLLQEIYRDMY
human PPARgamma, sequence (P37231 205-505): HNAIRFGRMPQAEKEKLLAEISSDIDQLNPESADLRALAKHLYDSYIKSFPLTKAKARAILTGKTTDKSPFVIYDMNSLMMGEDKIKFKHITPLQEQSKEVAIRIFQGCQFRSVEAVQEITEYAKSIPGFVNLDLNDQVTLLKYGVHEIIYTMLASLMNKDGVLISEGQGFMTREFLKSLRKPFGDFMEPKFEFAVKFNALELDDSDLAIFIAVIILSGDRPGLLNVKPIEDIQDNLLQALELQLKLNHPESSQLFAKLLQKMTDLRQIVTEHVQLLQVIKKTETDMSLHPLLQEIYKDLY

In general, EC50 refers to the midpoint of the concentration-response curve. Turning to `CC(OC(=O)Cc1cccc(SCc2ccccc2C(=O)O)c1)c1ccc(C(F)(F)F)cc1` (centres unmarked) [Example 31, 2-{3-[1-(4-Trifluoromethyl-phenyl)-ethoxycarbonylmethyl]phenylsulfanylmethyl}-benzoic acid], the EC50 at human PPARgamma turned out to be 3.5 µM; at human PPARalpha, 18 µM.

For the molecule `O=C(Cc1cccc(SCc2ccccc2C(=O)O)c1)OCCc1ccc(C(F)(F)F)cc1` [Example 32, 2-{3-[2-(4-Trifluoromethyl-phenyl)-ethoxycarbonylmethyl]-phenylsulfanylmethyl}-benzoic acid], the EC50 came out at 3 µM on human PPARgamma and 5.5 µM at human PPARalpha.

On to `Cc1cccc(C)c1COC(=O)Cc1ccc(SCc2ccccc2C(=O)O)cc1` [Example 33, 2-[4-(2,6-Dimethyl-benzyloxycarbonylmethyl)-phenylsulfanylmethyl]-benzoic acid], for which the figures for the EC50 at human PPARgamma and at human PPARalpha were 18 µM and 0.62 µM, respectively.

In the case of `C=CCC(OC(=O)Cc1ccc(SCc2ccccc2C(=O)O)cc1)c1ccccc1` (centres unmarked) [Example 34, 2-[4-(1-Phenyl-but-3-enyloxycarbonylmethyl)-phenylsulfanylmethyl]-benzoic acid], the figures for the EC50 at human PPARgamma and at human PPARalpha were 15 µM and 18 µM, respectively.

On to `COC(=O)C(Cc1ccccc1)OC(=O)Cc1cccc(SCc2ccccc2C(=O)O)c1` (centres unmarked) [Example 35, 2-[3-(1-Methoxycarbonyl-2-phenyl-ethoxycarbonylmethyl)-phenylsulfanylmethyl]-benzoic acid], for which the EC50 turned out to be 6 µM at human PPARgamma and 22 µM on human PPARalpha.

For `COc1ccc(CCOC(=O)Cc2ccc(SCc3ccccc3C(=O)O)cc2)cc1OC` [Example 36, 2-{4-[2-(3,4-Dimethoxy-phenyl)-ethoxycarbonylmethyl]-phenylsulfanylmethyl}-benzoic acid], the EC50 is 7 µM on human PPARgamma and 21 µM on human PPARalpha.

Take `COC(=O)C(Cc1ccccc1)OC(=O)Cc1ccc(SCc2ccccc2C(=O)O)cc1` (centres unmarked) [Example 37, 2-[4-(1-Methoxycarbonyl-2-phenylethoxycarbonylmethyl)phenylsulfanylmethyl]-benzoic acid]: the EC50 on human PPARgamma stood at 3.9 µM; on human PPARalpha, 2.2 µM.

Turning to `O=C(Cc1cccc(SCc2ccccc2C(=O)O)c1)OCCc1ccccc1C(F)(F)F` [Example 38, 2-{3-[2-(2-Trifluoromethylphenyl)ethoxycarbonylmethyl]phenylsulfanylmethyl}-benzoic acid], the values for the EC50 at human PPARgamma and at human PPARalpha were 9 µM and 3.8 µM, respectively.

On to `O=C(Cc1ccc(SCc2ccccc2C(=O)O)cc1)OCCc1ccccc1C(F)(F)F` [Example 40, 2-{4-[2-(2-Trifluoromethylphenyl)ethoxycarbonylmethyl]phenylsulfanylmethyl}-benzoic acid], for which the EC50 amounted to 8.2 µM on human PPARgamma and 0.76 µM on human PPARalpha.

Consider `Cc1cccc(C)c1COC(=O)Cc1cccc(SCc2ccccc2C(=O)O)c1` [Example 41, 2-[3-(2,6-Dimethyl-benzyloxycarbonylmethyl)-phenylsulfanylmethyl]-benzoic acid], for which the EC50 on human PPARgamma was 3.8 µM; on human PPARalpha it was 15 µM.

As to `O=C(Cc1cccc(SCc2ccccc2C(=O)O)c1)OCc1ccc(-n2cccn2)cc1` [Example 42, 2-[3-(4-Pyrazol-1-yl-benzyloxycarbonylmethyl)-phenylsulfanylmethyl]-benzoic acid], the EC50 on human PPARgamma is 4.2 µM; at human PPARalpha, 18 µM.

Consider `O=C(Cc1ccc(SCc2ccccc2C(=O)O)cc1)OCc1ccc(-n2cccn2)cc1` [Example 43, 2-[4-(4-Pyrazol-1-yl-benzyloxycarbonylmethyl)-phenylsulfanylmethyl]-benzoic acid], for which the EC50 is 4.2 µM on human PPARgamma and 16 µM at human PPARalpha.

Turning to `COc1ccc(CCOC(=O)Cc2cccc(SCc3ccccc3C(=O)O)c2)cc1OC` [Example 44, 2-{3-[2-(3,4-Dimethoxy-phenyl)-ethoxycarbonylmethyl]-phenylsulfanylmethyl}-benzoic acid], the EC50 at human PPARgamma is 11 µM; at human PPARalpha it was 18 µM.

(Values after US9181181B2, “2-substituted-3-phenylpropionic acid derivatives and their use in the treatment of inflammatory bowel disease” (Albireo AB, priority 2007, dated 2015).)
